The numbers were not newly measured in patent publication US8101199B2, “Des-methyl-tocopherol therapy for restenosis prevention” (Celonova Biosciences, Inc., priority 2003, dated 2012), which cites them from elsewhere.

For series [1] the following is noted: relative to d-Alpha-Toc = 100.
Series [2] deals with previously dilated artery segment. The note with it: 1200 IU/day orally for 4 months after PTCA.
A further series relates to coronary restenosis. The note with it: clinical trials.
For another series, the system named is femoral arteries. The note with it: rabbit; three weeks after angioplasty; oral treatment beginning 19 d before angioplasty.
In the next series the test system is native coronary vessels. The note with it: addition of 200 mg for all subjects during the study.
The subject of series [3] is rabbit vascular smooth muscle cells.

Turning to `CC(=O)Oc1c(C)c(C)c2c(c1C)CCC(C)(CCCC(C)CCCC(C)CCCC(C)C)O2` (racemic) [dl-ALpha-Tocopherol acet.], in series [1], the “Antioxidant Activity (d-Alpha-Toc = 100)” value was 0.

In the case of `Cc1c(C)c2c(c(C)c1O)CCC(C)(CCCC(C)CCCC(C)CCCC(C)C)O2` (racemic) [dl-Alpha-Tocopherol], in series [2], the “overall incidence of restenosis defined by an abnormal angiogram or thallium test or exercise stress test” value is on record as 34.6% and the “restenosis (angiographically documented)” value is recorded as 35.5%. Besides, the “Antioxidant Activity (d-Alpha-Toc = 100)” value in series [1] is reported as 100.

Turning to `CC(C)(Sc1cc(C(C)(C)C)c(O)c(C(C)(C)C)c1)Sc1cc(C(C)(C)C)c(O)c(C(C)(C)C)c1` [Probucol], in the series on coronary restenosis, the “prevention of coronary restenosis after balloon angioplasty” value was “shown to prevent coronary restenosis”.

As to `Cc1c(C)c2c(c(C)c1O)CC[C@@](C)(CCC[C@H](C)CCC[C@H](C)CCCC(C)C)O2` [alpha-tocopherol, Alpha-Tocopherol], in the series on femoral arteries, the “angiographically determined minimum luminal diameter” value is given as 1.38+/−0.29 mm and the “cross-sectional area of the intima-media” value is listed as 0.62+/−0.25 mm2. Further, the “effect on restenosis rates” value in the series with native coronary vessels is recorded as “no effect on restenosis rates”. The “DNA synthesis stimulated by oxidized low density lipoprotein” value in series [3] was “inhibited DNA synthesis”.

In the case of `CC(=O)Oc1c(C)c(C)c2c(c1C)CC[C@@](C)(CCC[C@H](C)CCC[C@H](C)CCCC(C)C)O2` [d-Alpha-Tocopherol acet.], the “Antioxidant Activity (d-Alpha-Toc = 100)” value in series [1] is 0.

Consider `Cc1c(C)c2c(c(C)c1O)CC[C@@](C)(CCC[C@H](C)CCC[C@H](C)CCCC(C)C)O2` [d-Alpha-Tocopherol], for which, in series [1], the “Antioxidant Activity (d-Alpha-Toc = 100)” value is on record as 100.

Regarding `Cc1cc(O)c(C)c2c1O[C@](C)(CCC[C@H](C)CCC[C@H](C)CCCC(C)C)CC2` [d-Beta-Tocopherol], the “Antioxidant Activity (d-Alpha-Toc = 100)” value in series [1] was 130.

On to `Cc1cc(O)cc2c1O[C@](C)(CCC[C@H](C)CCC[C@H](C)CCCC(C)C)CC2` [d-Delta-Tocopherol], for which, in series [1], the “Antioxidant Activity (d-Alpha-Toc = 100)” value is 300–500.

Consider `Cc1c(O)cc2c(c1C)O[C@](C)(CCC[C@H](C)CCC[C@H](C)CCCC(C)C)CC2` [d-Gamma-Tocopherol], for which the “Antioxidant Activity (d-Alpha-Toc = 100)” value in series [1] is given as 200.

Regarding `Cc1c(O)cc2c(c1C)OC(C)(CCC(=O)O)CC2` (stereo not drawn) [gamma-CEHC, 2,7,8-trimethyl-2-(beta-carboxyethyl)-6-hydroxychroman], the cyclooxygenase activity inhibition entry in the series on cyclooxygenase was “inhibit cyclooxygenase activity”.

In the case of `Cc1c(O)cc2c(c1C)O[C@](C)(CCC[C@H](C)CCC[C@H](C)CCCC(C)C)CC2` [gamma-tocopherol, Gamma-Tocopherol], the cyclooxygenase activity inhibition entry in the series on cyclooxygenase is recorded as “inhibit cyclooxygenase activity”.
